Results: patent US20090299044A1 (priority 2006, published 2009)
Bridge positions count the residues as written; N and C are the ends. Square brackets hold non-standard residues; d marks the D form. Peptide text beside a SMILES is read from it. 1Nal = N[C@@H](Cc1cccc2ccccc12)C(=O)O

Tests used:
human Kv1.1 (HEK293) = molecular target: T1, human Kv1.1 (HEK293) (Homo sapiens, UniProt Q09470); assay: cell-based
T1 construct: expressed in transfected cells; host or cells: HEK293

human Kv1.3 (CHO) = molecular target: T2, human Kv1.3 (CHO) (Homo sapiens, UniProt P22001); assay: cell-based
T2 construct: expressed in transfected cells; host or cells: CHO
T2 sequence (P22001 whole entry): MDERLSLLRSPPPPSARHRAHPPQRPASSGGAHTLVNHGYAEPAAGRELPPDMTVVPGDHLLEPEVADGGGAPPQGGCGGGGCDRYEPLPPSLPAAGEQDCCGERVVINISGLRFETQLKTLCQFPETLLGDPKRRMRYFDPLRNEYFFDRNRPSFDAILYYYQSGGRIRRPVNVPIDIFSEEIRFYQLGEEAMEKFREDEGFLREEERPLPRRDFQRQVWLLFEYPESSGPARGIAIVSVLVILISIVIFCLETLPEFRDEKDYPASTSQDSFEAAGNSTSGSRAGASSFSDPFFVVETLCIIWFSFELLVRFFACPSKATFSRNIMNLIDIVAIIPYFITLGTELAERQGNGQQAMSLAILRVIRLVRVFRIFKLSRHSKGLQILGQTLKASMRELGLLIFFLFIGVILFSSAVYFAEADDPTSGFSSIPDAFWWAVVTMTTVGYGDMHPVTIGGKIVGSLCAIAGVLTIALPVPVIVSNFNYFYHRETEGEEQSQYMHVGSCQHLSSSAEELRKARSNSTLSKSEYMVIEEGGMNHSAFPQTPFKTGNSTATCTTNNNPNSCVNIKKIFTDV

T1 sequence (Q09470 whole entry): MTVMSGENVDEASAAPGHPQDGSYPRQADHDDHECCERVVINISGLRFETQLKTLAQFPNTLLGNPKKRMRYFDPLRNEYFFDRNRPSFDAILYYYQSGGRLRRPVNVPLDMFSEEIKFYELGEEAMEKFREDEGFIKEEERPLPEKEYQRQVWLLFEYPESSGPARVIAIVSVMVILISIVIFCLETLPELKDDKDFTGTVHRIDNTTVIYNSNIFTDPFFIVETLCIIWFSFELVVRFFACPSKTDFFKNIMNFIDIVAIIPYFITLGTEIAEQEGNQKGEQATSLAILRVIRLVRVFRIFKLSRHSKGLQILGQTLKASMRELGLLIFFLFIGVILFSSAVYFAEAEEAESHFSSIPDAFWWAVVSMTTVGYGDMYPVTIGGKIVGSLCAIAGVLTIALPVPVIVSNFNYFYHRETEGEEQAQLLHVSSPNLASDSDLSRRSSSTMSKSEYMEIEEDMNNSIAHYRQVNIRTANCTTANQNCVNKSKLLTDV

SMILES | IC50 (human Kv1.1 (HEK293)) [nM] | IC50 (human Kv1.3 (CHO)) [nM]
CC[C@H](C)[C@@H]1NC(=O)[C@H](CCCCN)NC(=O)[C@@H](NC(=O)[C@H](C)NC(=O)[C@@H](NC(=O)[C@H](CC(N)=O)NC(=O)[C@@H](NC(=O)[C@@H](NC(=O)[C@@H](NC(=O)CN)C(C)C)[C@@H](C)CC)[C@@H](C)CC)C(C)C)CSSC[C@@H]2NC(=O)[C@H](CCCCN)NC(=O)CNC(=O)[C@H](Cc3ccccc3)NC(=O)[C@H](CCCNC(=N)N)NC(=O)[C@H](CCSC)NC(=O)CNC(=O)[C@H](C)NC(=O)[C@H](CCCCN)NC(=O)[C@H](CCCCN)NC(=O)[C@@H]3CSSC[C@@H](C(=O)N[C@H](C(=O)N4CCC[C@H]4C(=O)N[C@@H](CCCCN)C(=O)O)[C@@H](C)O)NC(=O)[C@H](Cc4c[nH]cn4)NC(=O)[C@H](CSSC[C@H](NC(=O)[C@H](CCC(N)=O)NC(=O)[C@H](CCCNC(=N)N)NC(=O)[C@H](CO)NC1=O)C(=O)N[C@@H](CC(C)C)C(=O)N[C@@H](CCC(=O)O)C(=O)N1CCC[C@H]1C(=O)N3)NC(=O)[C@H](CCCCN)NC(=O)CNC(=O)[C@H](CC(N)=O)NC(=O)[C@H](CCSC)NC2=O [K7A] (H-GVIINVACKISRQCLEPCKKAGMRFGKCMNGKCHCTPK-OH; disulfide 8-28, 14-33, 18-35) | 0.0219 | 0.181
CC[C@H](C)[C@@H]1NC(=O)[C@H](CCCCN)NC(=O)[C@@H](NC(=O)[C@H](CCC(=O)O)NC(=O)[C@@H](NC(=O)[C@H](CC(N)=O)NC(=O)[C@@H](NC(=O)[C@@H](NC(=O)[C@@H](NC(=O)CN)C(C)C)[C@@H](C)CC)[C@@H](C)CC)C(C)C)CSSC[C@@H]2NC(=O)[C@H](CCCCN)NC(=O)CNC(=O)[C@H](Cc3ccccc3)NC(=O)[C@H](CCCNC(=N)N)NC(=O)[C@H](CCSC)NC(=O)CNC(=O)[C@H](C)NC(=O)[C@H](CCCCN)NC(=O)[C@H](CCCCN)NC(=O)[C@@H]3CSSC[C@@H](C(=O)N[C@H](C(=O)N4CCC[C@H]4C(=O)N[C@@H](CCCCN)C(=O)O)[C@@H](C)O)NC(=O)[C@H](Cc4c[nH]cn4)NC(=O)[C@H](CSSC[C@H](NC(=O)[C@H](CCC(N)=O)NC(=O)[C@H](CCCNC(=N)N)NC(=O)[C@H](CO)NC1=O)C(=O)N[C@@H](CC(C)C)C(=O)N[C@@H](CCC(=O)O)C(=O)N1CCC[C@H]1C(=O)N3)NC(=O)[C@H](CCCCN)NC(=O)CNC(=O)[C@H](CC(N)=O)NC(=O)[C@H](CCSC)NC2=O [K7E] (H-GVIINVECKISRQCLEPCKKAGMRFGKCMNGKCHCTPK-OH; disulfide 8-28, 14-33, 18-35) | < 0.00152 | 0.0142
CC[C@H](C)[C@@H]1NC(=O)[C@H](CCCCN)NC(=O)[C@@H](NC(=O)[C@H](Cc2cccc3ccccc23)NC(=O)[C@@H](NC(=O)[C@H](CC(N)=O)NC(=O)[C@@H](NC(=O)[C@@H](NC(=O)[C@@H](NC(=O)CN)C(C)C)[C@@H](C)CC)[C@@H](C)CC)C(C)C)CSSC[C@@H]2NC(=O)[C@H](CCCCN)NC(=O)CNC(=O)[C@H](Cc3ccccc3)NC(=O)[C@H](CCCNC(=N)N)NC(=O)[C@H](CCSC)NC(=O)CNC(=O)[C@H](C)NC(=O)[C@H](CCCCN)NC(=O)[C@H](CCCCN)NC(=O)[C@@H]3CSSC[C@@H](C(=O)N[C@H](C(=O)N4CCC[C@H]4C(=O)N[C@@H](CCCCN)C(=O)O)[C@@H](C)O)NC(=O)[C@H](Cc4c[nH]cn4)NC(=O)[C@H](CSSC[C@H](NC(=O)[C@H](CCC(N)=O)NC(=O)[C@H](CCCNC(=N)N)NC(=O)[C@H](CO)NC1=O)C(=O)N[C@@H](CC(C)C)C(=O)N[C@@H](CCC(=O)O)C(=O)N1CCC[C@H]1C(=O)N3)NC(=O)[C@H](CCCCN)NC(=O)CNC(=O)[C@H](CC(N)=O)NC(=O)[C@H](CCSC)NC2=O [K7Nal] (H-GVIINV[1Nal]CKISRQCLEPCKKAGMRFGKCMNGKCHCTPK-OH; disulfide 8-28, 14-33, 18-35) | < 0.00152 | 0.0236
CC[C@H](C)[C@@H]1NC(=O)[C@H](CCCCN)NC(=O)[C@@H](NC(=O)[C@H](CCCNC(=N)N)NC(=O)[C@@H](NC(=O)[C@H](CC(N)=O)NC(=O)[C@@H](NC(=O)[C@@H](NC(=O)[C@@H](NC(=O)CN)C(C)C)[C@@H](C)CC)[C@@H](C)CC)C(C)C)CSSC[C@@H]2NC(=O)[C@H](CCCCN)NC(=O)CNC(=O)[C@H](Cc3ccccc3)NC(=O)[C@H](CCCNC(=N)N)NC(=O)[C@H](CCSC)NC(=O)CNC(=O)[C@H](C)NC(=O)[C@H](CCCCN)NC(=O)[C@H](CCCCN)NC(=O)[C@@H]3CSSC[C@@H](C(=O)N[C@H](C(=O)N4CCC[C@H]4C(=O)N[C@@H](CCCCN)C(=O)O)[C@@H](C)O)NC(=O)[C@H](Cc4c[nH]cn4)NC(=O)[C@H](CSSC[C@H](NC(=O)[C@H](CCC(N)=O)NC(=O)[C@H](CCCNC(=N)N)NC(=O)[C@H](CO)NC1=O)C(=O)N[C@@H](CC(C)C)C(=O)N[C@@H](CCC(=O)O)C(=O)N1CCC[C@H]1C(=O)N3)NC(=O)[C@H](CCCCN)NC(=O)CNC(=O)[C@H](CC(N)=O)NC(=O)[C@H](CCSC)NC2=O [K7R] (H-GVIINVRCKISRQCLEPCKKAGMRFGKCMNGKCHCTPK-OH; disulfide 8-28, 14-33, 18-35) | < 0.00152 | 0.0132
CC[C@H](C)[C@@H]1NC(=O)[C@H](C)NC(=O)[C@@H](NC(=O)[C@H](CCCCN)NC(=O)[C@@H](NC(=O)[C@H](CC(N)=O)NC(=O)[C@@H](NC(=O)[C@@H](NC(=O)[C@@H](NC(=O)CN)C(C)C)[C@@H](C)CC)[C@@H](C)CC)C(C)C)CSSC[C@@H]2NC(=O)[C@H](CCCCN)NC(=O)CNC(=O)[C@H](Cc3ccccc3)NC(=O)[C@H](CCCNC(=N)N)NC(=O)[C@H](CCSC)NC(=O)CNC(=O)[C@H](C)NC(=O)[C@H](CCCCN)NC(=O)[C@H](CCCCN)NC(=O)[C@@H]3CSSC[C@@H](C(=O)N[C@H](C(=O)N4CCC[C@H]4C(=O)N[C@@H](CCCCN)C(=O)O)[C@@H](C)O)NC(=O)[C@H](Cc4c[nH]cn4)NC(=O)[C@H](CSSC[C@H](NC(=O)[C@H](CCC(N)=O)NC(=O)[C@H](CCCNC(=N)N)NC(=O)[C@H](CO)NC1=O)C(=O)N[C@@H](CC(C)C)C(=O)N[C@@H](CCC(=O)O)C(=O)N1CCC[C@H]1C(=O)N3)NC(=O)[C@H](CCCCN)NC(=O)CNC(=O)[C@H](CC(N)=O)NC(=O)[C@H](CCSC)NC2=O [K9A] (H-GVIINVKCAISRQCLEPCKKAGMRFGKCMNGKCHCTPK-OH; disulfide 8-28, 14-33, 18-35) | 0.0406 | 0.166
CC[C@H](C)[C@@H]1NC(=O)[C@H](CCC(=O)O)NC(=O)[C@@H](NC(=O)[C@H](CCCCN)NC(=O)[C@@H](NC(=O)[C@H](CC(N)=O)NC(=O)[C@@H](NC(=O)[C@@H](NC(=O)[C@@H](NC(=O)CN)C(C)C)[C@@H](C)CC)[C@@H](C)CC)C(C)C)CSSC[C@@H]2NC(=O)[C@H](CCCCN)NC(=O)CNC(=O)[C@H](Cc3ccccc3)NC(=O)[C@H](CCCNC(=N)N)NC(=O)[C@H](CCSC)NC(=O)CNC(=O)[C@H](C)NC(=O)[C@H](CCCCN)NC(=O)[C@H](CCCCN)NC(=O)[C@@H]3CSSC[C@@H](C(=O)N[C@H](C(=O)N4CCC[C@H]4C(=O)N[C@@H](CCCCN)C(=O)O)[C@@H](C)O)NC(=O)[C@H](Cc4c[nH]cn4)NC(=O)[C@H](CSSC[C@H](NC(=O)[C@H](CCC(N)=O)NC(=O)[C@H](CCCNC(=N)N)NC(=O)[C@H](CO)NC1=O)C(=O)N[C@@H](CC(C)C)C(=O)N[C@@H](CCC(=O)O)C(=O)N1CCC[C@H]1C(=O)N3)NC(=O)[C@H](CCCCN)NC(=O)CNC(=O)[C@H](CC(N)=O)NC(=O)[C@H](CCSC)NC2=O [K9E] (H-GVIINVKCEISRQCLEPCKKAGMRFGKCMNGKCHCTPK-OH; disulfide 8-28, 14-33, 18-35) | 0.111 | 0.0318
CC[C@H](C)[C@@H]1NC(=O)[C@H](Cc2cccc3ccccc23)NC(=O)[C@@H](NC(=O)[C@H](CCCCN)NC(=O)[C@@H](NC(=O)[C@H](CC(N)=O)NC(=O)[C@@H](NC(=O)[C@@H](NC(=O)[C@@H](NC(=O)CN)C(C)C)[C@@H](C)CC)[C@@H](C)CC)C(C)C)CSSC[C@@H]2NC(=O)[C@H](CCCCN)NC(=O)CNC(=O)[C@H](Cc3ccccc3)NC(=O)[C@H](CCCNC(=N)N)NC(=O)[C@H](CCSC)NC(=O)CNC(=O)[C@H](C)NC(=O)[C@H](CCCCN)NC(=O)[C@H](CCCCN)NC(=O)[C@@H]3CSSC[C@@H](C(=O)N[C@H](C(=O)N4CCC[C@H]4C(=O)N[C@@H](CCCCN)C(=O)O)[C@@H](C)O)NC(=O)[C@H](Cc4c[nH]cn4)NC(=O)[C@H](CSSC[C@H](NC(=O)[C@H](CCC(N)=O)NC(=O)[C@H](CCCNC(=N)N)NC(=O)[C@H](CO)NC1=O)C(=O)N[C@@H](CC(C)C)C(=O)N[C@@H](CCC(=O)O)C(=O)N1CCC[C@H]1C(=O)N3)NC(=O)[C@H](CCCCN)NC(=O)CNC(=O)[C@H](CC(N)=O)NC(=O)[C@H](CCSC)NC2=O [K9Nal] (H-GVIINVKC[1Nal]ISRQCLEPCKKAGMRFGKCMNGKCHCTPK-OH; disulfide 8-28, 14-33, 18-35) | 0.00292 | 0.0658
CC[C@H](C)[C@@H]1NC(=O)[C@H](CCCNC(=N)N)NC(=O)[C@@H](NC(=O)[C@H](CCCCN)NC(=O)[C@@H](NC(=O)[C@H](CC(N)=O)NC(=O)[C@@H](NC(=O)[C@@H](NC(=O)[C@@H](NC(=O)CN)C(C)C)[C@@H](C)CC)[C@@H](C)CC)C(C)C)CSSC[C@@H]2NC(=O)[C@H](CCCCN)NC(=O)CNC(=O)[C@H](Cc3ccccc3)NC(=O)[C@H](CCCNC(=N)N)NC(=O)[C@H](CCSC)NC(=O)CNC(=O)[C@H](C)NC(=O)[C@H](CCCCN)NC(=O)[C@H](CCCCN)NC(=O)[C@@H]3CSSC[C@@H](C(=O)N[C@H](C(=O)N4CCC[C@H]4C(=O)N[C@@H](CCCCN)C(=O)O)[C@@H](C)O)NC(=O)[C@H](Cc4c[nH]cn4)NC(=O)[C@H](CSSC[C@H](NC(=O)[C@H](CCC(N)=O)NC(=O)[C@H](CCCNC(=N)N)NC(=O)[C@H](CO)NC1=O)C(=O)N[C@@H](CC(C)C)C(=O)N[C@@H](CCC(=O)O)C(=O)N1CCC[C@H]1C(=O)N3)NC(=O)[C@H](CCCCN)NC(=O)CNC(=O)[C@H](CC(N)=O)NC(=O)[C@H](CCSC)NC2=O [K9R] (H-GVIINVKCRISRQCLEPCKKAGMRFGKCMNGKCHCTPK-OH; disulfide 8-28, 14-33, 18-35) | 0.00201 | 0.012
